Experimental data published in paper PMC10889512, “Pyrimidine Schiff Bases: Synthesis, Structural Characterization and Recent Studies on Biological Activities” (International Journal of Molecular Sciences, 2024).
In brackets after ≈: the same amount, converted by molar mass. Read-outs that look alike come from different tables or passages of the source.

Columns and labels:
A172 [1] = test: Neutral red uptake assay on A172; type: cell-based, human; conditions: Homo sapiens, A 172, 72 h, A172, 72 h treatment
Description: (§1) Based on the results obtained for the RPTEC cell line, the following concentrations of 4b–d were chosen to be applied to neoplastic cell lines: 0.1, 1, 10, 25, 50, and 100 µM. A172, AGS, CaCo-2, HeLa, and HepG2 cancer cell lines were used to perform a neutral red uptake assay. The obtained results were compared with a negative control (cell lines incubated without tested compounds), and half-maximal inhibitory concentration (IC50) values were calculated. Cell lines were plated in 96-well plates at a density of 1 × 10^4 cells/well. After 24 h incubation, which allowed the cells to attach and start to proliferate, the culture media were replaced with 4a–d dissolved in the appropriate medium at concentrations of 1, 10, 50, 100, 150 and 200 µM. […] Negative (1% DMSO in medium) and positive (1 µM staurosporine) controls were also included. Plates were incubated at 37 °C for 24, 48, and 72 h before the neutral red uptake assay. The neutral red uptake assay was performed as described by Repetto et al.. Briefly, the medium from all wells was discarded, the attached cells were washed with 100 µL PBS, and then 100 µL of neutral red working solution in medium (40 µg/mL) was added to each well. The neutral red solution was incubated overnight in the same conditions as the cells and centrifuged before being added to the cells. The plates were incubated for at least 2 h at 37 °C, 5% CO2, in a humidified atmosphere. Next, the neutral red medium was removed, and the cells were washed with 100 µL PBS. A 100 µL quantity of destain solution consisting of 50% ethanol, 1% glacial acetic acid, and deionized water was added to each well. Plates were incubated for 30 min with constant shaking on a horizontal shaker at 37 °C. Absorption was measured at 540 nm excitation. The cells’ viability was calculated by comparing results from experimental sets with negative controls according to the formula: % viability=ODtest substance−ODblind/ODnegative control−ODblind×100

AGS = test: Neutral red uptake assay on AGS; type: cell-based, human; conditions: 72 h treatment
Description: as §1

CaCo-2 = test: Neutral red uptake assay on CaCo-2; type: cell-based; conditions: Homo sapiens; CaCo-2, 72 h treatment
Description: as §1

HeLa = test: Neutral red uptake assay on HeLa; type: cell-based; conditions: Homo sapiens, 72 h treatment
Description: as §1

HepG2 = test: Neutral red uptake assay on HepG2; type: cell-based; conditions: Homo sapiens; HepG2, 72 h treatment
Description: as §1

E. coli 25922 = test: Antimicrobial activity assay, microdilution; type: cell-based, Escherichia coli; conditions: concentration range from 0.5 µg/mL to 256 µg/mL
Description: (§2) In vitro antimicrobial and antifungal activity was screened using microdilution and modified Richard’s medium. The assay was performed for compounds 4a, 4b, 4c, and 4d with seven reference microbial strains from ATTC (E. coli 25922, S. aureus 43300, K. pneumoniae 700603, A. baumannii 19606, P. aeruginosa 27853, E. faecalis 29212, and C. albicans 10231).
(§3) Seven reference strains from the ATCC collection (Escherichia coli 25922, Staphylococcus aureus 43300, Klebsiella pneumoniae 13883, Acinetobacter baumannii 19606, Pseudomonas aeruginosa 27853, Enterococcus faecalis 29212, and Candida albicans 10231) were used. The assay was performed according to a modified version of Richard et al.’s protocol and ISO standards 20776-1:2019 and 16256:2021 [78, 79]. Microdilution with spectrophotometric measurement was used to calculate MIC50 (minimal inhibitory concentration which decreased the microorganisms’ viability to 50%) values. Briefly, compounds were prepared 100× concentrated in DMSO, and during the whole experiment, they were diluted to 1× with TSB. Serial dilutions of tested compounds were made directly on plates at a concentration range of 0.5 to 256 µg/mL. Microorganisms were incubated for 24 h at 37 °C (bacteria) or 25 °C (yeast) on Petri dishes with TSA. The bacteria/yeast suspensions were prepared at a density 5 × 10^5 CFU/mL (for bacteria) or 0.5–2.5 × 10^5 CFU/mL (for yeast) with TSB. Also, appropriate controls were contained in the experiment: the positive control consisted of a specific strain in TSB, and the negative control was TSB alone. To ensure that used strains were not modified and were still responding to antibacterial/antifungal compounds established by EUCAST, additional tests were conducted with levofloxacin, gentamicin, and amphotericin B. Microplates were incubated on a shaker for 24 h at 37 ± 1 °C or 25 ± 1 °C for the bacteria and yeast strains, respectively. After the incubation, spectrophotometric measurement was performed at 580 nm. MIC50 was calculated by comparing the results obtained for experimental sets with positive controls. Next, 50 µL aliquots of 1% (m/v) TTC solution were added to each well. The plates were incubated on the shaker for 24 h at 37/25 °C. In living microbial cells, colourless TTC is converted into red formazan crystals, which allows for visual observation and MBC/MFC (minimal bactericidal/fungicidal concentration) value assessment.

S. aureus 43300 = test: Antimicrobial activity assay, microdilution; type: cell-based, Staphylococcus aureus; conditions: concentration range from 0.5 µg/mL to 256 µg/mL
Description: as §2, §3

K. pneumoniae 700603 = test: Antimicrobial activity assay, microdilution; type: cell-based, Klebsiella pneumoniae; conditions: concentration range from 0.5 µg/mL to 256 µg/mL
Description: as §2, §3

A. baumannii 19606 = test: Antimicrobial activity assay, microdilution; type: cell-based, Acinetobacter baumannii; conditions: concentration range from 0.5 µg/mL to 256 µg/mL
Description: as §2, §3

P. aeruginosa 27853 = test: Antimicrobial activity assay, microdilution; type: cell-based, Pseudomonas aeruginosa; conditions: concentration range from 0.5 µg/mL to 256 µg/mL
Description: as §2, §3

E. faecalis 29212 = test: Antimicrobial activity assay, microdilution; type: cell-based, Enterococcus faecalis; conditions: concentration range from 0.5 µg/mL to 256 µg/mL
Description: as §2, §3

C. albicans 10231 = test: Antifungal activity assay, microdilution; type: cell-based, Candida albicans; conditions: concentration range from 0.5 µg/mL to 256 µg/mL
Description: as §2, §3

AGS cell line = test system: AGS cell line; parameters: method as in Suttie et al. 87; conditions: ref Suttie et al. 87; cited from earlier work
A172 cell line = test system: A172 cell line; parameters: method as in PMID 30405885; conditions: A172, 72 h, 200 µM; cited from earlier work
RPTEC cell line = test: Neutral red uptake assay on RPTEC cell line; type: cell-based; conditions: 100 µM, 72 h
Description: In order to evaluate the cytotoxic properties of the tested compounds (4a–d), a neutral red uptake (NR) assay was performed on the RPTEC cell line. Four concentrations were used: 10, 100, 250, and 500 µM of each compound. The compound 4a was rejected from further investigation on cancer cell lines due to its high cytotoxicity (53 and 67% at 100 and 250 µM, respectively). Furthermore, at a concentration of 500 µM, the compound 4a crystallized, which influenced the obtained results by attenuating cytotoxic activity. Cell lines were plated in 96-well plates at a density of 1 × 10^4 cells/well. After 24 h incubation, which allowed the cells to attach and start to proliferate, the culture media were replaced with 4a–d dissolved in the appropriate medium at concentrations of 1, 10, 50, 100, 150 and 200 µM. […] Negative (1% DMSO in medium) and positive (1 µM staurosporine) controls were also included. Plates were incubated at 37 °C for 24, 48, and 72 h before the neutral red uptake assay. […] A 100 µL quantity of destain solution consisting of 50% ethanol, 1% glacial acetic acid, and deionized water was added to each well. […] Absorption was measured at 540 nm excitation. The cells’ viability was calculated by comparing results from experimental sets with negative controls according to the formula: % viability=ODtest substance−ODblind/ODnegative control−ODblind×100

A172 [2] = test system: A172; parameters: method as in PMID 33921108; conditions: cited from earlier work
Enterococcus faecalis = test system: Enterococcus faecalis; parameters: method as in PMID 33921108; conditions: cited from earlier work

SMILES	MIC and MBC/MFC activity (E. coli 25922)	MIC and MBC/MFC activity (S. aureus 43300)	MIC and MBC/MFC activity (K. pneumoniae 700603)	MIC and MBC/MFC activity (A. baumannii 19606)	MIC and MBC/MFC activity (P. aeruginosa 27853)	MIC and MBC/MFC activity (E. faecalis 29212)	MIC and MBC/MFC activity (C. albicans 10231)	melting point	other results
Cc1nc(-c2ccccc2)nc(Nc2ccc(F)cc2)c1C=Nc1ccc(Cl)c(C(F)(F)F)c1 [compound 4d, 5-[{[4-chloro-3-(trifluoromethyl)phenyl]imino}methyl]-N-(4-fluorophenyl)-6-methyl-2-phenylpyrimidin-4-amine]	Neither MIC nor MBC/MFC activity was observed	Neither MIC nor MBC/MFC activity was observed	Neither MIC nor MBC/MFC activity was observed	Neither MIC nor MBC/MFC activity was observed	Neither MIC nor MBC/MFC activity was observed	Neither MIC nor MBC/MFC activity was observed	Neither MIC nor MBC/MFC activity was observed	210 °C	IC50 (A172 [1]): > 100 µM; IC50 (AGS): > 100 µM; IC50 (AGS; Homo sapiens, 72 h): 190 µM; IC50 (CaCo-2): > 100 µM; IC50 (HeLa): > 100 µM; IC50 (HepG2): > 100 µM
O=c1[nH]cc(F)c(=O)[nH]1 [5-fluorouracil]									LD50 (AGS cell line): 153.7 µM
COc1cccc2c1C(=O)c1c(O)c3c(c(O)c1C2=O)C[C@@](O)(C(=O)CO)C[C@@H]3O[C@H]1C[C@H](N)[C@@H](O)[C@H](C)O1 [epirubicin]									LD50 (AGS cell line): 0.23 µM
Cn1nnc2c(C(N)=O)ncn2c1=O [TMZ, temozolomide]									cell viability (A172 cell line): below 70%
Cc1nc(-c2ccccc2)nc(Nc2ccc(F)cc2)c1C=Nc1ccc(F)cc1 [compound 4a, N-(4-fluorophenyl)-5-{[(4-fluorophenyl)imino]methyl}-6-methyl-2-phenylpyrimidin-4-amine]	Neither MIC nor MBC/MFC activity was observed	Neither MIC nor MBC/MFC activity was observed	Neither MIC nor MBC/MFC activity was observed	Neither MIC nor MBC/MFC activity was observed	Neither MIC nor MBC/MFC activity was observed	Neither MIC nor MBC/MFC activity was observed	Neither MIC nor MBC/MFC activity was observed	178 °C	cytotoxicity (RPTEC cell line): 53%
COc1ccccc1N=Cc1c(C)nc(-c2ccccc2)nc1Nc1ccc(F)cc1 [compound 4c, N-(4-fluorophenyl)-6-methyl-2-phenyl-5-{[(2-methoxyphenyl)imino]methyl}pyrimidin-4-amine]	Neither MIC nor MBC/MFC activity was observed	Neither MIC nor MBC/MFC activity was observed	Neither MIC nor MBC/MFC activity was observed	Neither MIC nor MBC/MFC activity was observed	Neither MIC nor MBC/MFC activity was observed	Neither MIC nor MBC/MFC activity was observed	Neither MIC nor MBC/MFC activity was observed	167 to 169 °C	IC50 (A172 [1]): > 100 µM; IC50 (AGS; Homo sapiens, 72 h): > 100 µM; IC50 (CaCo-2): > 100 µM; IC50 (HeLa): > 100 µM; IC50 (HepG2): > 100 µM
CCOc1ccc(N=Cc2c(C)nc(-c3ccccc3)nc2Nc2ccc(F)cc2)cc1 [compound III, 5-[(4-ethoxyphenyl)imino]methyl-N-(4-fluorophenyl)-6-methyl-2-phenylpyrimidin-4-amine]									IC50 (A172 [2]): 526 µM; MBC (Enterococcus faecalis): 32 µg/mL (≈ 75 µM); MIC (Enterococcus faecalis): 16 µg/mL (≈ 37.5 µM)
